Like-named read-outs stand apart in the source and are kept apart here. Starred links: 1 amine or outer side, 2 acyl side, 3 side chain; linkers in the order of their positions; H or OH if unused. Non-standard residues stand in square brackets, D forms with d. Residues, ends and D or L forms follow the SMILES beside them. *: point of attachment. Phe(4-CF3) = N[C@@H](Cc1ccc(C(F)(F)F)cc1)C(=O)O; NMePhe(3-Cl) = CN[C@@H](Cc1cccc(Cl)c1)C(=O)O; NMeF = CN[C@@H](Cc1ccccc1)C(=O)O; NMeGABA = CN(CCCC(=O)[*:2])[*:1]; NMeI = CC[C@H](C)[C@H](NC)C(=O)O; NMeβAla = CN(CCC(=O)[*:2])[*:1]; NMeL = CN[C@@H](CC(C)C)C(=O)O; NMeV = CN[C@H](C(=O)O)C(C)C; NMeA = CN[C@@H](C)C(=O)O; dNMeA = CN[C@H](C)C(=O)O; β3hA = C[C@H](N)CC(=O)O; Sar = CNCC(=O)O; tBu = CC(C)(C)*
Columns and labels:
[1] = PAMPA (parallel artificial membrane permeability assay); type: in vitro ADME; conditions: for Papp at 18 hours, 50 µM: PAMPA
In short: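 Artificial membrane was 10% (w/v) egg lecithin plus 0.5% (w/v) cholesterol in dodecane on a PVDF filter. A 10 mM DMSO stock was added at 0.5% (v/v) to donor buffer (50 mM MOPSO, pH 6.5, 5.0% glycocholic acid). After 18 h at 37 °C, LC/MS or LC/UV gave donor and acceptor levels for Pe.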

[2] = Metabolic stability in human hepatic microsome; type: in vitro ADME; conditions: microsomes
[3] = membrane permeation rate (Pe), 50 mM MOPSO buffer pH 6.5 with 5.0% glycocholic acid, 37° C., 18 hours, read-out: iPAMPA Pe
[4] = pH 7.4, human hepatic microsome, NADPH(+), read-out: CL NADPH(+)

| SMILES | Papp at 18 hours, 50 µM [1, 3] [×10⁻⁶ cm/s] | microsomal CLint at 1 uM [2, 4] [µL/min/mg] | Papp at 18 hours, 50 µM ([1]; pH 6.5) [×10⁻⁶ cm/s] | microsomal CLint at 1 uM ([2]; human, pH 7.4, CL NADPH(+)) [µL/min/mg] | iPAMPA Pe ([1]; membrane permeation rate (Pe), 50 mM MOPSO buffer pH 6.5 with 5.0% glycocholic acid, 37° C., 18 hours) |
| --- | --- | --- | --- | --- | --- |
| CC(C)C[C@@H]1NC(=O)[C@@H](C(C)C)NC(=O)C[C@H](C)NC(=O)[C@H](CC(C)C)N(C)C(=O)[C@H](Cc2cccc(Cl)c2)N(C)C(=O)[C@H](CC(C)C)N(C)C(=O)[C@H](Cc2ccc(C(F)(F)F)cc2)NC(=O)[C@H](C)N(C)C(=O)[C@H]([C@@H](C)O)NC1=O [DP-792] (cyclo(LT[NMeA][Phe(4-CF3)][NMeL][NMePhe(3-Cl)][NMeL][β3hA][dV])) | 33 | 16 |  |  |  |
| CC(C)C[C@@H]1NC(=O)[C@H](Cc2ccccc2)N(C)C(=O)[C@H](CC(C)C)N(C)C(=O)[C@@H](C)N(C)C(=O)C[C@H](C)NC(=O)[C@H](CC(C)C)N(C)C(=O)[C@H](Cc2ccccc2)N(C)C(=O)[C@H]([C@@H](C)O)NC(=O)[C@H](Cc2ccccc2)N(C)C1=O [DP-793] (cyclo(L[NMeF]T[NMeF][NMeL][β3hA][dNMeA][NMeL][NMeF])) | 53 | 218 |  |  |  |
| CC(C)C[C@H]1C(=O)NCC(=O)N[C@@H](C)CC(=O)N(C)CCC(=O)N[C@@H]([C@@H](C)O)C(=O)N(C)[C@@H](C)C(=O)N[C@@H](COC(C)(C)C)C(=O)N(C)[C@@H](Cc2ccccc2)C(=O)N1C [DP-794] (cyclo(G[β3hA][NMeβAla]T[NMeA]S(tBu)[NMeF][NMeL])) | 3.7 | 43 |  |  |  |
| CC(C)C[C@H]1C(=O)N(C)[C@@H](CC(C)C)C(=O)N[C@@H](C)CC(=O)N(C)CCCC(=O)N(C)[C@@H](Cc2ccccc2)C(=O)N[C@@H]([C@@H](C)O)C(=O)N(C)CC(=O)N[C@@H](COC(C)(C)C)C(=O)N1C [DP-795] (cyclo([NMeF]T[Sar]S(tBu)[NMeL][NMeL][β3hA][NMeGABA])) | 19 | 143 |  |  |  |
| CC(C)C[C@H]1C(=O)N(C)[C@@H](Cc2ccccc2)C(=O)N[C@@H](C)CC(=O)N[C@H](C(C)C)C(=O)N[C@@H](C)C(=O)N[C@@H]([C@@H](C)O)C(=O)N(C)[C@@H](C)C(=O)N[C@@H](Cc2ccccc2)C(=O)N1C [DP-796] (cyclo(AT[NMeA]F[NMeL][NMeF][β3hA][dV])) | 20 | 66 |  |  |  |
| CC(C)C[C@H]1C(=O)N[C@@H](C)CC(=O)N(C)[C@H](C)C(=O)N(C)[C@@H](Cc2ccccc2)C(=O)N(C)[C@@H](CC(C)C)C(=O)N[C@@H]([C@@H](C)O)C(=O)N(C)CC(=O)N[C@@H](COC(C)(C)C)C(=O)N1C [DP-797] (cyclo([NMeF][NMeL]T[Sar]S(tBu)[NMeL][β3hA][dNMeA])) | 26 | 91 |  |  |  |
| CC(C)C[C@@H]1NC(=O)[C@H](C)NC(=O)C[C@H](C)NC(=O)[C@H](Cc2ccccc2)N(C)C(=O)[C@H](CC(C)C)N(C)C(=O)[C@H](C)NC(=O)[C@H](Cc2ccccc2)N(C)C(=O)[C@H](CC(C)C)N(C)C1=O [DP-798] (cyclo(AL[NMeL][NMeF]A[NMeL][NMeF][β3hA])) | 69 | 1540 |  |  |  |
| CC[C@H](C)[C@H]1C(=O)N[C@@H](C)CC(=O)N(C)[C@H](C)C(=O)N(C)[C@@H](Cc2cccc(Cl)c2)C(=O)N(C)[C@@H](CC(C)C)C(=O)N[C@@H]([C@@H](C)O)C(=O)N(C)CC(=O)N[C@@H](COC(C)(C)C)C(=O)N(C)[C@@H](CC(C)C)C(=O)N1C [DP-799] (cyclo([NMeI][β3hA][dNMeA][NMePhe(3-Cl)][NMeL]T[Sar]S(tBu)[NMeL])) | 32 | 222 |  |  |  |
| CC[C@H](C)[C@H]1C(=O)N[C@@H](C)CC(=O)N(C)[C@H](C)C(=O)N(C)[C@@H](CC(C)C)C(=O)N(C)[C@@H](CC(C)C)C(=O)N[C@@H]([C@@H](C)O)C(=O)N(C)CC(=O)N[C@@H](COC(C)(C)C)C(=O)N(C)[C@@H](CC(C)C)C(=O)N1C [DP-800] (cyclo([NMeI][β3hA][dNMeA][NMeL][NMeL]T[Sar]S(tBu)[NMeL])) | 25 | 58 |  |  |  |
| CC(C)C[C@H]1C(=O)N[C@@H](COC(C)(C)C)C(=O)N[C@@H](C)CC(=O)N[C@H](C(C)C)C(=O)N(C)[C@@H](Cc2cccc(Cl)c2)C(=O)N(C)[C@@H](C)C(=O)N(C)[C@@H](CC(C)C)C(=O)N[C@@H]([C@@H](C)O)C(=O)N(C)[C@@H](C)C(=O)N1C [DP-801] (cyclo([NMeA][NMeL]S(tBu)[β3hA][dV][NMePhe(3-Cl)][NMeA][NMeL]T)) | 60 | 133 |  |  |  |
| CC(C)C[C@H]1C(=O)N(C)[C@@H](C)C(=O)N(C)[C@@H](CC(C)C)C(=O)N[C@@H]([C@@H](C)O)C(=O)N(C)[C@@H](C)C(=O)N(C)[C@@H](CC(C)C)C(=O)N[C@@H](COC(C)(C)C)C(=O)N[C@@H](C)CC(=O)N[C@H](C(C)C)C(=O)N1C [DP-802] (cyclo([NMeA][NMeL]S(tBu)[β3hA][dV][NMeL][NMeA][NMeL]T)) | 29 | 77 |  |  |  |
| CC[C@H](C)[C@H]1C(=O)N[C@@H](COC(C)(C)C)C(=O)N[C@@H](C)CC(=O)N(C)[C@@H](C)C(=O)N(C)[C@@H](Cc2cccc(Cl)c2)C(=O)N(C)CC(=O)N(C)[C@@H](CC(C)C)C(=O)N[C@@H]([C@@H](C)O)C(=O)N(C)[C@@H](C)C(=O)N(C)[C@@H](CC(C)C)C(=O)N1C [DP-803] (cyclo([NMeA][NMeL][NMeI]S(tBu)[β3hA][NMeA][NMePhe(3-Cl)][Sar][NMeL]T)) | 28 | 85 |  |  |  |
| CC[C@H](C)[C@H]1C(=O)N[C@@H](COC(C)(C)C)C(=O)N[C@@H](C)CC(=O)N(C)[C@@H](C)C(=O)N(C)[C@@H](CC(C)C)C(=O)N(C)CC(=O)N(C)[C@@H](CC(C)C)C(=O)N[C@@H]([C@@H](C)O)C(=O)N(C)[C@@H](C)C(=O)N(C)[C@@H](CC(C)C)C(=O)N1C [DP-804] (cyclo([NMeA][NMeL][NMeI]S(tBu)[β3hA][NMeA][NMeL][Sar][NMeL]T)) | 29 | 40 |  |  |  |
| CC[C@H](C)[C@@H]1NC(=O)[C@H](CC(C)C)N(C)C(=O)[C@H](C)NC(=O)CN(C)C(=O)[C@H](Cc2ccc(C(F)(F)F)cc2)NC(=O)[C@H]([C@@H](C)O)NC(=O)[C@H](CC(C)C)N(C)C(=O)CCN(C)C(=O)C[C@H](C)NC(=O)[C@H](CC(C)C)N(C)C(=O)[C@H](CC(C)C)N(C)C1=O [DP-805] (cyclo(A[NMeL]I[NMeL][NMeL][β3hA][NMeβAla][NMeL]T[Phe(4-CF3)][Sar])) | 41 | 169 |  |  |  |
| CC[C@H](C)[C@@H]1NC(=O)[C@H](CC(C)C)N(C)C(=O)[C@H](C)NC(=O)CN(C)C(=O)[C@H](CC(C)C)NC(=O)[C@H]([C@@H](C)O)NC(=O)[C@H](CC(C)C)N(C)C(=O)CCN(C)C(=O)C[C@H](C)NC(=O)[C@H](CC(C)C)N(C)C(=O)[C@H](CC(C)C)N(C)C1=O [DP-806] (cyclo(A[NMeL]I[NMeL][NMeL][β3hA][NMeβAla][NMeL]TL[Sar])) | 27 | 88 |  |  |  |
| CC[C@H](C)[C@@H]1NC(=O)[C@H](C)NC(=O)C[C@H](C)NC(=O)[C@H](CC(C)C)NC(=O)[C@H](CC(C)C)NC(=O)[C@H](C(C)C)NC(=O)[C@H](C)N(C)C(=O)[C@H](Cc2ccc(C(F)(F)F)cc2)NC(=O)CNC(=O)[C@H]([C@@H](C)O)NC(=O)[C@H](CC(C)C)N(C)C(=O)[C@@H]2CCCN2C1=O [DP-807] (cyclo(AIP[NMeL]TG[Phe(4-CF3)][NMeA]VLL[β3hA])) |  |  | 15 | 81 |  |
| CC[C@H](C)[C@@H]1NC(=O)[C@H](C)NC(=O)C[C@H](C)NC(=O)[C@H](CC(C)C)NC(=O)[C@H](CC(C)C)NC(=O)[C@H](C(C)C)NC(=O)[C@H](C)N(C)C(=O)[C@H](CC(C)C)NC(=O)CNC(=O)[C@H]([C@@H](C)O)NC(=O)[C@H](CC(C)C)N(C)C(=O)[C@@H]2CCCN2C1=O [DP-808] (cyclo(AIP[NMeL]TGL[NMeA]VLL[β3hA])) |  |  | 3.3 | 33 |  |
| CC(C)C[C@H]1C(=O)N(C)[C@@H](CC(C)C)C(=O)N[C@@H]([C@@H](C)O)C(=O)N(C)[C@@H](Cc2cccc(Cl)c2)C(=O)NCC(=O)N(C)[C@@H](C(C)C)C(=O)N[C@@H](Cc2ccc(C(F)(F)F)cc2)C(=O)N[C@@H](C)CC(=O)N(C)CCC(=O)N[C@@H](COC(C)(C)C)C(=O)N1C [DP-809] (cyclo(G[NMeV][Phe(4-CF3)][β3hA][NMeβAla]S(tBu)[NMeL][NMeL]T[NMePhe(3-Cl)])) |  | 201 |  |  | 7.0E−05 |
| CC[C@H](C)[C@H]1C(=O)NCC(=O)N(C)[C@@H](C)C(=O)N[C@@H](CC(C)C)C(=O)N[C@@H](C)CC(=O)N(C)[C@@H](C)C(=O)N[C@@H](CC(C)C)C(=O)N(C)[C@@H](C)C(=O)N[C@@H]([C@@H](C)O)C(=O)N2CCC[C@H]2C(=O)N(C)[C@@H](Cc2cccc(Cl)c2)C(=O)N[C@@H](Cc2ccc(C(F)(F)F)cc2)C(=O)N1C [DP-810] (cyclo(G[NMeA]L[β3hA][NMeA]L[NMeA]TP[NMePhe(3-Cl)][Phe(4-CF3)][NMeI])) |  |  | 14 | 46 |  |
